Experimental findings from ChEMBL document CHEMBL1151707, “Novel 3-phenylpropane-1,2-diamine derivates as inhibitors of aminopeptidase N (APN)” (Bioorg Med Chem, 2008) are described below.

One test has as its target T1, Aminopeptidase N (Sus scrofa, UniProt P15145).
T1 sequence (P15145 whole entry): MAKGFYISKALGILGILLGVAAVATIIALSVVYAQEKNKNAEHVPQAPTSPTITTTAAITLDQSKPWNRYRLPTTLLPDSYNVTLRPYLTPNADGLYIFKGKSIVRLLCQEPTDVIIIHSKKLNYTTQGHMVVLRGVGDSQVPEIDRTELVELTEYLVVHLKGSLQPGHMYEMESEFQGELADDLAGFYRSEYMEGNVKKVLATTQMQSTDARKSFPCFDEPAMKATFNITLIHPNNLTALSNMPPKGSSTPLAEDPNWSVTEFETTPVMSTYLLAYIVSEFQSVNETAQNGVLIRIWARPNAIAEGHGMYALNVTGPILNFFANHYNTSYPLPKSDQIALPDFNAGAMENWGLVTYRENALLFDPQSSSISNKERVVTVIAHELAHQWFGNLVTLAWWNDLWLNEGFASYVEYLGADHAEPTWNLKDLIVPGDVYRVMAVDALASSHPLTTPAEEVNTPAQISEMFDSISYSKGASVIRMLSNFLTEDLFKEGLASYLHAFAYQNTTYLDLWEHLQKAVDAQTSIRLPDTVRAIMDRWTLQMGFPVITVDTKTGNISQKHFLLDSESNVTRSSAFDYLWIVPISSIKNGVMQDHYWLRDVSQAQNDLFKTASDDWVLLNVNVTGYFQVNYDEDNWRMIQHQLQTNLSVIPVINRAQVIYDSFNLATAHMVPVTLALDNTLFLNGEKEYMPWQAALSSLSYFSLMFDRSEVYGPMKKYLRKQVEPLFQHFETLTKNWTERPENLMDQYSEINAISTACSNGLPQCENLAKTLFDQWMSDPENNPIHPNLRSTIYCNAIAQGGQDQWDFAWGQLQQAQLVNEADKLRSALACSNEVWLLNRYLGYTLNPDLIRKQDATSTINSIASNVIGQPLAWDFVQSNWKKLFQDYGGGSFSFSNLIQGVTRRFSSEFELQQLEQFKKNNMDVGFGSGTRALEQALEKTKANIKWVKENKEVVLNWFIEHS
Kind of test: Inhibition of pig kidney microsome aminopeptidase N by UV-visible spectrophotometer.

Test [1] concerns the target 72 kDa type IV collagenase (Homo sapiens, UniProt P08253). Kind of test: Inhibition of MMP2.
The test system of a further test is HL-60. Kind of test: Antiproliferative activity against human HL-60 cells after 48 hrs by MTT assay. Type of test: functional, cell-based. The note with it: HL-60, 48 h. (In general: Tetrazolium assays rely on reduction of a dye to a coloured formazan, in cell work by metabolically active cells.)

A value given as a limit tells only on which side of the number the result lay.

Sequence of 72 kDa type IV collagenase (P08253 whole entry): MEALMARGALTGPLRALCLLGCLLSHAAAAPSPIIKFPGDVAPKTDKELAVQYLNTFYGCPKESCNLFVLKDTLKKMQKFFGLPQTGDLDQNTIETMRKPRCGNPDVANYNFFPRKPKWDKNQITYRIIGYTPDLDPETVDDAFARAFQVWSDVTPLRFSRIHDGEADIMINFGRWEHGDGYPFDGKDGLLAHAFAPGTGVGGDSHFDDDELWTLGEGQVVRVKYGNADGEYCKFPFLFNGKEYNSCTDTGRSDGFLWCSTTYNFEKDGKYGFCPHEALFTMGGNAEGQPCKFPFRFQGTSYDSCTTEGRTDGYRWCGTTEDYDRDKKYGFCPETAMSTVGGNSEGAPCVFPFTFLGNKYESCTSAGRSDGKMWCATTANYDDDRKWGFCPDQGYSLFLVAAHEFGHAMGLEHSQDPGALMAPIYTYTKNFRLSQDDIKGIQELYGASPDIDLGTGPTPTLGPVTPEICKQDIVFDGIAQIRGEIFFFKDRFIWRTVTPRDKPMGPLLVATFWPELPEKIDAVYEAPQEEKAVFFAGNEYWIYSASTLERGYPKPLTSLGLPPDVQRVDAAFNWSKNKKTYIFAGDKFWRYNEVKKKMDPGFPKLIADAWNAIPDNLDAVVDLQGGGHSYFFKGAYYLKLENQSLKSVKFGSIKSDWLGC

A word on the IC50: it is the concentration at which inhibition is half-maximal. Lower therefore signals inhibition by little substance. `N[C@@H](CNC(=O)/C=C/c1ccccc1)Cc1ccccc1`: the IC50 at Aminopeptidase N worked out at 596 µM; in test [1], 211 µM.

On to `N[C@@H](CNC(=O)CCc1ccccc1)Cc1ccccc1`, for which the IC50 at Aminopeptidase N was 290 µM; in test [1], 547 µM.

Take `C[C@H](N)C(=O)NC[C@H](N)Cc1ccccc1`: the IC50 at Aminopeptidase N is above 1000 µM; in test [1], 772 µM.

As for `CSCC[C@H](N)C(=O)NC[C@H](N)Cc1ccccc1`, the IC50 against Aminopeptidase N came to 119 µM; in test [1], 112 µM.

Regarding `N[C@@H](CNC(=O)/C=C/c1ccc(O)c(O)c1)Cc1ccccc1`, the values for the IC50 (against Aminopeptidase N; in test [1]) were 492 µM and 329 µM, respectively.

`CC(C)C[C@H](NC(=O)[C@@H](O)[C@H](N)Cc1ccccc1)C(=O)O` [UBENIMEX] showed an IC50 in test [1] of 162 µM.

For `N[C@@H](CNC(=O)[C@@H](N)CO)Cc1ccccc1`, the IC50 amounted to 33.7 µM against Aminopeptidase N and 202 µM in test [1].

For the molecule `N[C@@H](CNC(=O)c1cc([N+](=O)[O-])cc([N+](=O)[O-])c1)Cc1ccccc1`, the IC50 turned out to be 204 µM against Aminopeptidase N and 101 µM in test [1].

Regarding `NCCCC[C@H](N)C(=O)NC[C@H](N)Cc1ccccc1`, the values for the IC50 (at Aminopeptidase N; in test [1]) were 164 µM and 99.7 µM, respectively.

Turning to `NCC(=O)NC[C@H](N)Cc1ccccc1`, the IC50 against Aminopeptidase N was above 1000 µM; in test [1], 23.5 µM.

Take `CC(C)C[C@H](N)C(=O)NC[C@H](N)Cc1ccccc1`: the values for the IC50 (against Aminopeptidase N; in test [1]) were 142 µM and 170 µM, respectively.

For `NC(=O)CC[C@H](N)C(=O)NC[C@H](N)Cc1ccccc1`, the figures for the 50% inhibitory concentration (IC50) (against Aminopeptidase N; in test [1]) were above 1000 µM and 802 µM, respectively.

Take `N[C@@H](CNC(=O)Cc1ccccc1)Cc1ccccc1`: the values for the IC50 (against Aminopeptidase N; in test [1]) were above 1000 µM and 632 µM, respectively.

As to `N[C@@H](CNC(=O)[C@@H](N)CS)Cc1ccccc1`, the IC50 against Aminopeptidase N stood at 21.1 µM; in test [1] it was 78.8 µM; with HL-60, 1090 µM.

In the case of `NCCC[C@H](N)C(=O)NC[C@H](N)Cc1ccccc1`, the results for the concentration for half-maximal inhibition (IC50) (against Aminopeptidase N; in test [1]) were 50.5 µM and 219 µM, respectively.

Consider `CC(C)[C@H](N)C(=O)NC[C@H](N)Cc1ccccc1`, for which the IC50 at Aminopeptidase N stood at 476 µM; in test [1], 151 µM.

For `N[C@@H](CNC(=O)[C@H](Cc1ccccc1)NC(=O)[C@@H](N)Cc1ccccc1)Cc1ccccc1`, the values for the IC50 (against Aminopeptidase N; in test [1]; in the test on HL-60) were 15.5 µM, 183 µM and 630 µM, respectively.

With `NCCC(=O)NC[C@H](N)Cc1ccccc1`, the IC50 against Aminopeptidase N was 409 µM; in test [1], 11.2 µM.

Take `N[C@@H](CNC(=O)CCCc1ccccc1)Cc1ccccc1`: the values for the IC50 (against Aminopeptidase N; in test [1]) were above 1000 µM and 221 µM, respectively.

Take `NCCCCCC(=O)NC[C@H](N)Cc1ccccc1`: the IC50 against Aminopeptidase N was 164 µM; in test [1] it was 99.7 µM.

In the case of `N[C@@H](CNC(=O)Cc1ccccc1Nc1c(Cl)cccc1Cl)Cc1ccccc1`, the 50% inhibitory concentration (IC50) (against Aminopeptidase N; in test [1]) was above 1000 µM throughout.
